± gives the expanded uncertainty stated by the source.
Tests used:
[1] = Liquid, Ebulliometric method (Recirculating still)
[2] = refractive index (Na D-line) (dimensionless); xn = mol fraction of the nth substance listed; conditions: 293.15 K, 101 kPa, Liquid, Standard Abbe refractometry

CCCCO [butan-1-ol]
[1]
Conditions	vapor or sublimation pressure [kPa]
356.35 K	25.3 ± 0.2
359.45 K	29.3 ± 0.2
362.95 K	33.5 ± 0.3
368.6 K	42.8 ± 0.3
373.45 K	52.5 ± 0.3
377.3 K	61.2 ± 0.3
381.9 K	72.8 ± 0.3
386.05 K	84.9 ± 0.4
391.95 K	105.3 ± 0.4
395.8 K	120.1 ± 0.4

CCCCO [butan-1-ol] + CCCO
[2]
Conditions	refractive index
x2 = 0	1.3992 ± 0.0004
x2 = 0.0852	1.3979 ± 0.0004
x2 = 0.1369	1.3971 ± 0.0004
x2 = 0.1987	1.3962 ± 0.0004
x2 = 0.2741	1.395 ± 0.0004
x2 = 0.3521	1.3939 ± 0.0004
x2 = 0.4218	1.3928 ± 0.0004
x2 = 0.5	1.3916 ± 0.0004
x2 = 0.5742	1.3905 ± 0.0004
x2 = 0.6588	1.3892 ± 0.0004
x2 = 0.7123	1.3884 ± 0.0004
x2 = 0.7986	1.3871 ± 0.0004
x2 = 0.862	1.3862 ± 0.0004
x2 = 0.936	1.385 ± 0.0004

CCCO [propan-1-ol]
[1]
Conditions	vapor or sublimation pressure [kPa]
337.95 K	25.6 ± 0.2
341.35 K	30.1 ± 0.3
346.15 K	37.4 ± 0.3
350.8 K	46 ± 0.3
353.25 K	51.1 ± 0.3
357.35 K	60.7 ± 0.3
362.45 K	74.7 ± 0.4
366.25 K	86.8 ± 0.4
370.4 K	101.8 ± 0.4
373.65 K	114.9 ± 0.5

CCCO [propan-1-ol] + CCCCO
Conditions	refractive index
[2], x1 = 1	1.3841 ± 0.0004
